Laboratory results taken from ChEMBL document CHEMBL1201862, “PubChem BioAssay data set” (2004).
The source made the active and inactive calls.

Experiments:
[1] = Luminescence Cell-Based Dose Retest to Confirm Inhibitors of Cancer Stem Cells. [Related pubchem assays (depositor defined):AID2717, AID2721]; assay type: functional; conditions: Homo sapiens
[2] = molecular target: Photoreceptor-specific nuclear receptor (Homo sapiens, UniProt Q9Y5X4); assay type: functional, cell-based;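 further: CHO-S cells with Gal4-NCOR and VP16-NR2E3 two-hybrid luciferase reporter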
Chain of Photoreceptor-specific nuclear receptor (Q9Y5X4 whole entry, the tested form may be a part): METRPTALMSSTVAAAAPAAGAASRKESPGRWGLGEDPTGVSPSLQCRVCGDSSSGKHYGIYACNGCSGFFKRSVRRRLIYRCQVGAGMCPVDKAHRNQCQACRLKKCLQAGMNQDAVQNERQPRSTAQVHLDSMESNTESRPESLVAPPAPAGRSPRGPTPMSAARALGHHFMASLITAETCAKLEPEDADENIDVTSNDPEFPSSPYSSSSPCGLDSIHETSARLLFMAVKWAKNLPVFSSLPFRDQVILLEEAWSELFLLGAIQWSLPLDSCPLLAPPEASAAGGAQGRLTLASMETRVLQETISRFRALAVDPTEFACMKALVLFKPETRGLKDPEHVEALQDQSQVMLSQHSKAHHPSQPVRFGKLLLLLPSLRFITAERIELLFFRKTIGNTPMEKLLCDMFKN

[3] = molecular target: T1, Small ubiquitin-related modifier 1 (Homo sapiens, UniProt P63165); experiment: SUMO1 protein interaction blockers, potency – biochemical, fluorescence polarization, uHTS hits, dose response (AID 624382); assay type: functional; conditions: read-out: IC50_Mean
T1 sequence (P63165 whole entry): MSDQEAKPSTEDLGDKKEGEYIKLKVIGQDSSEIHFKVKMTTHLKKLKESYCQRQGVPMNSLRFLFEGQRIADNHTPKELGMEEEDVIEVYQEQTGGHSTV

[4] = molecular target: T1, Small ubiquitin-related modifier 1; experiment: SUMO1 protein-protein binding blockers, potency – biochemical, FRET, dose response (AID 624383); assay type: functional; conditions: read-out: IC50_Mean
[5] = cytotoxicity toward MDA-MB-231 breast cancer cells – cell-based, CellTiter-Glo luminescence, cherry-pick, cytotoxicity control for RAD54 inhibitor project, dose response (AID 651692); assay type: functional
[6] = molecular target: T2, DNA repair and recombination protein RAD54-like (Homo sapiens, UniProt Q92698); experiment: RAD54 Holliday junction migration blockers – biochemical, fluorescence, cherry-picked samples, dose series, confirmation (AID 651657); assay type: functional
T2 sequence (Q92698 whole entry): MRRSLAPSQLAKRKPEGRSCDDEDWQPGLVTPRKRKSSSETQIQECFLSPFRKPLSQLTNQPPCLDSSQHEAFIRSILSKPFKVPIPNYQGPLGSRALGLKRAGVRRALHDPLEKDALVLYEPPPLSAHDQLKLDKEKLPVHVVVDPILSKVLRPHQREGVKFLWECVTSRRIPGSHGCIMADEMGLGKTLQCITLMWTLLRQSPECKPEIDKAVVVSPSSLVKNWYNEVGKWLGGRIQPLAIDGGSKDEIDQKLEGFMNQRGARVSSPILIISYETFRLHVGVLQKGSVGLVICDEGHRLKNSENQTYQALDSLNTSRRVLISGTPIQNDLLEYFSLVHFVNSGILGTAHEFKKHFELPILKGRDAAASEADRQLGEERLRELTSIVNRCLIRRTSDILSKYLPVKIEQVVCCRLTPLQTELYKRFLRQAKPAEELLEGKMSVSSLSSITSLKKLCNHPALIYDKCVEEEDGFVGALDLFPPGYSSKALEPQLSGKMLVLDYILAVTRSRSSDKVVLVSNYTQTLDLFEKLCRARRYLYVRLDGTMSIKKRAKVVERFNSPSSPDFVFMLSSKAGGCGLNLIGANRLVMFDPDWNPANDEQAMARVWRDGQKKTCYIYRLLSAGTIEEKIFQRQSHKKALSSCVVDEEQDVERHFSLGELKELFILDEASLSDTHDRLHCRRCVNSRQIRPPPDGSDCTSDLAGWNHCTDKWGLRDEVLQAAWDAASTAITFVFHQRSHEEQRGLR

[7] = molecular target: T3, DNA repair protein RAD52 homolog (Homo sapiens, UniProt P43351); assay type: functional, biochemical
T3 sequence (P43351 whole entry): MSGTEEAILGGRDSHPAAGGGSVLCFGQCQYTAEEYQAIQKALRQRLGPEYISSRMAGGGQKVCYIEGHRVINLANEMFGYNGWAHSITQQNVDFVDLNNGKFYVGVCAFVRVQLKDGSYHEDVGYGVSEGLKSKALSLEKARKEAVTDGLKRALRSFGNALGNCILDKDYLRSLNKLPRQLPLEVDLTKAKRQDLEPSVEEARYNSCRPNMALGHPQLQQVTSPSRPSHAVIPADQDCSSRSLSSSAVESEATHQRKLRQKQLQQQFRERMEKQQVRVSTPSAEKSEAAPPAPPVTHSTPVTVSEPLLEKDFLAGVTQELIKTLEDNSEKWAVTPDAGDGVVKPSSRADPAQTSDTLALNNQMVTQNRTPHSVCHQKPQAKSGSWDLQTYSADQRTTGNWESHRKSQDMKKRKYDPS

[8] = viability of PTEN-deleted HCT116 cells – cell-based, HCT116 PTEN knockout, dose response (AID 1047); assay type: functional;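 further: HCT116 colon tumor cells with PTEN knocked out; cells exposed to compound for 60 hours before readout; potency for loss of cell viability measured by luminescence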
[9] = viability of HCT116 lacking mutant beta-catenin – cell-based, human colon tumor, dose response (AID 1045); assay type: functional;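 further: HCT116 colon tumor cells with beta catenin knocked out; cells exposed to compound for 60 hours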
[10] = molecular target: Intestinal-type alkaline phosphatase (Mus musculus, UniProt P24822); experiment: PubChem AID 488785; assay type: functional
Chain of Intestinal-type alkaline phosphatase (Mus musculus, UniProt P24822) (P24822 whole entry): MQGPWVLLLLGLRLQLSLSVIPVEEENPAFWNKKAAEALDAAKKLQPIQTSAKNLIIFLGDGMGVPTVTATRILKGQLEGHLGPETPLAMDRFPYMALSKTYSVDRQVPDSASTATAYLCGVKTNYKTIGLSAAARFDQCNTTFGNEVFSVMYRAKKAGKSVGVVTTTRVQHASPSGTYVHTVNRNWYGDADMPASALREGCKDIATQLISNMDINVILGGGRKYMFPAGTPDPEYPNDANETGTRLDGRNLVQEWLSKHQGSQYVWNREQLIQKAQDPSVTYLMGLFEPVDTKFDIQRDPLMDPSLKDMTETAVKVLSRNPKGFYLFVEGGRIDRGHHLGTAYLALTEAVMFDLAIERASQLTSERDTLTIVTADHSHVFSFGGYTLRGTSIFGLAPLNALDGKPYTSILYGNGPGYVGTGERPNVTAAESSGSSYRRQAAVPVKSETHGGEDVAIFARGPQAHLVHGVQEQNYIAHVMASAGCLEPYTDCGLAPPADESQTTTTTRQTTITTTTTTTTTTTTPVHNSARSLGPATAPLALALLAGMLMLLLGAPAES

[11] = molecular target: T4, Alkaline phosphatase, tissue-nonspecific isozyme (Homo sapiens, UniProt P05186); experiment: TNAP enzyme inhibition by screening hits, dose response, selectivity assay for mouse IAP inhibitor project, biochemical, human TNAP, uHTS hits (AID 488906); assay type: functional
T4 sequence (P05186 whole entry): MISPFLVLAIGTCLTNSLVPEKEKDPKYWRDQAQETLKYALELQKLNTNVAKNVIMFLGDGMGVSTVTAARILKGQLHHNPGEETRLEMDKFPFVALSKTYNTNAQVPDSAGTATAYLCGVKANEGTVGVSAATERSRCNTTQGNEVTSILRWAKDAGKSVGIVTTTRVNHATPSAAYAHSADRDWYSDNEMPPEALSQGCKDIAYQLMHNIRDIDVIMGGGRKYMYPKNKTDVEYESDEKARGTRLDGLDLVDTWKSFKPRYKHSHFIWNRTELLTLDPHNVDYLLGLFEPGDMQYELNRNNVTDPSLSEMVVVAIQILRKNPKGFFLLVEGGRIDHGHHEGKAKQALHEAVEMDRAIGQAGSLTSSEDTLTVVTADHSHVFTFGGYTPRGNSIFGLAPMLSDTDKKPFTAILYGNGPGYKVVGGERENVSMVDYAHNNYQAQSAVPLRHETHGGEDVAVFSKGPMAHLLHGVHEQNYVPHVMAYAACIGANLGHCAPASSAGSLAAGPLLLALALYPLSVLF

[12] = molecular target: Intestinal-type alkaline phosphatase (Homo sapiens, UniProt P09923); experiment: inhibition of human intestinal alkaline phosphatase – biochemical, dose response (AID 488876); assay type: functional
Chain of Intestinal-type alkaline phosphatase (Homo sapiens, UniProt P09923) (P09923 whole entry): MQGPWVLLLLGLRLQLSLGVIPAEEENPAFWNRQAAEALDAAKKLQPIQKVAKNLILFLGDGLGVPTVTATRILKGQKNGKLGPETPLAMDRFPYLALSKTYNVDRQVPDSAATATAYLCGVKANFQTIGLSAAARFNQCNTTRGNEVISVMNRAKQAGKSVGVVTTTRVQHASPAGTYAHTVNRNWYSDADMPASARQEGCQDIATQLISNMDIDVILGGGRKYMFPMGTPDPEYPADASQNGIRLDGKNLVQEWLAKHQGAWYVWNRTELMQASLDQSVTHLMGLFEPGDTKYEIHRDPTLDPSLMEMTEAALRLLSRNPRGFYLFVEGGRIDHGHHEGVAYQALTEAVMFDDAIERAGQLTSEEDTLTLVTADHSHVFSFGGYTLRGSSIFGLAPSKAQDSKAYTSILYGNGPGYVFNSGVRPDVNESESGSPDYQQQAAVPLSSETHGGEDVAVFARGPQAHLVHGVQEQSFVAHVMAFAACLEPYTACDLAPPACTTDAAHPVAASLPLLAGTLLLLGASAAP

INS1 = experiment: INS-1E survival protection against cytokine death – cell-based, luminescence, retest, dose response (AID 449756); assay type: functional; conditions: Rattus norvegicus;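 further: cell death triggered by IL-1 beta plus TNF-alpha plus IFN-gamma mixture; protective hits raise ATP signal compared with cytokine alone wells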
[13] = molecular target: Hepatocyte nuclear factor 4-alpha (Homo sapiens, UniProt P41235); assay type: functional, cell-based;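 further: biochemical luminescence-based dose-response counterscreen measuring inhibition of HNF4 dimerization, run alongside a screen for blockers of ABHD5–perilipin-5 interaction; split luciferase complementation of HNF4 fusion proteins in cell lysate measuring dimerization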
Chain of Hepatocyte nuclear factor 4-alpha (P41235 whole entry, the tested form may be a part): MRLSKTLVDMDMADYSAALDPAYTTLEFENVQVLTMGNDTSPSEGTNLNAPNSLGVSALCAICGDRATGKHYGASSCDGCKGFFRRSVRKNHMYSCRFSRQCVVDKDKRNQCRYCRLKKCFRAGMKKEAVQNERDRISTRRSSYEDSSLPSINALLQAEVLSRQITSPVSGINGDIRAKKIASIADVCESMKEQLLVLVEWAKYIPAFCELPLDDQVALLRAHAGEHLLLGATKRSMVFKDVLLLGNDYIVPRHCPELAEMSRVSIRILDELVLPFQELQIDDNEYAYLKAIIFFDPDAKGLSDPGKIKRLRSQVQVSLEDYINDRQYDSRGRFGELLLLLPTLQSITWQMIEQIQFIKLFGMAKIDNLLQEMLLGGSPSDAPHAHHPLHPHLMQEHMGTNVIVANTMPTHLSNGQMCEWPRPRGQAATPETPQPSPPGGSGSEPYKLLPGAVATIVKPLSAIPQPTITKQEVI

Cytochrome P450 1A2 = molecular target: T5, Cytochrome P450 1A2 (Homo sapiens, UniProt P05177);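 further: PubChem cytochrome P450 panel assay, CYP1A2 panel member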
T5 sequence (P05177 whole entry): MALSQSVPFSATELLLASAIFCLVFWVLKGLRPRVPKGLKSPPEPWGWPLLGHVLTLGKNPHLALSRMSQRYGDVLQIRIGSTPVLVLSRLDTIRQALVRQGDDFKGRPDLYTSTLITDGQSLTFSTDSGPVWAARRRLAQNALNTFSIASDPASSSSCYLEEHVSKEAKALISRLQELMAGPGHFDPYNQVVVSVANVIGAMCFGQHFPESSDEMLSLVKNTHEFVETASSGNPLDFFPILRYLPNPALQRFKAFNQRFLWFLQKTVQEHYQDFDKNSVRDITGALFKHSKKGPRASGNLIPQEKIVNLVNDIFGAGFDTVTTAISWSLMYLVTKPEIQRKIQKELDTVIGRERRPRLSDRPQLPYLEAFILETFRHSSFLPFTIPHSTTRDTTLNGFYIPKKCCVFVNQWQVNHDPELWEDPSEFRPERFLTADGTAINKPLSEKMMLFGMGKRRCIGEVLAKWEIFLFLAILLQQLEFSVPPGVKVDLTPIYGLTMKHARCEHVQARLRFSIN

Cytochrome P450 2C9 = Cytochrome P450 2C9 (Homo sapiens, UniProt P11712)
Chain of Cytochrome P450 2C9 (P11712 whole entry): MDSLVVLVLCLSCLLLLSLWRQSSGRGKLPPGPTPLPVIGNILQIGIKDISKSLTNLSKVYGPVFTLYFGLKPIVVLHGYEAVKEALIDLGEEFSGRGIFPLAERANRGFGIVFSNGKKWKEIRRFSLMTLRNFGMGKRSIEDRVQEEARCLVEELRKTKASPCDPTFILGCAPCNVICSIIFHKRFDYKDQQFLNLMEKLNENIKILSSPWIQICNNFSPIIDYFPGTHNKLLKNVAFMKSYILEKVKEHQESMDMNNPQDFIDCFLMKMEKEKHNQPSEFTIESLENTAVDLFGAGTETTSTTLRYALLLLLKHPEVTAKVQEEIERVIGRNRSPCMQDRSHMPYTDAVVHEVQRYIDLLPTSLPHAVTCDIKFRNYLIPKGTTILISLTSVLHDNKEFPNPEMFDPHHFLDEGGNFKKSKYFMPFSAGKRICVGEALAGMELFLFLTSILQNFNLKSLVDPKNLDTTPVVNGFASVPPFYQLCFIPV

[14] = molecular target: Tyrosine-protein phosphatase non-receptor type 11 (Homo sapiens, UniProt Q06124); experiment: PTPN11 enzyme inhibitors – biochemical, selectivity assay for STEP inhibitor project, dose response (AID 602367); assay type: functional; conditions: read-out: IC50_Mean
Chain of Tyrosine-protein phosphatase non-receptor type 11 (Q06124 whole entry): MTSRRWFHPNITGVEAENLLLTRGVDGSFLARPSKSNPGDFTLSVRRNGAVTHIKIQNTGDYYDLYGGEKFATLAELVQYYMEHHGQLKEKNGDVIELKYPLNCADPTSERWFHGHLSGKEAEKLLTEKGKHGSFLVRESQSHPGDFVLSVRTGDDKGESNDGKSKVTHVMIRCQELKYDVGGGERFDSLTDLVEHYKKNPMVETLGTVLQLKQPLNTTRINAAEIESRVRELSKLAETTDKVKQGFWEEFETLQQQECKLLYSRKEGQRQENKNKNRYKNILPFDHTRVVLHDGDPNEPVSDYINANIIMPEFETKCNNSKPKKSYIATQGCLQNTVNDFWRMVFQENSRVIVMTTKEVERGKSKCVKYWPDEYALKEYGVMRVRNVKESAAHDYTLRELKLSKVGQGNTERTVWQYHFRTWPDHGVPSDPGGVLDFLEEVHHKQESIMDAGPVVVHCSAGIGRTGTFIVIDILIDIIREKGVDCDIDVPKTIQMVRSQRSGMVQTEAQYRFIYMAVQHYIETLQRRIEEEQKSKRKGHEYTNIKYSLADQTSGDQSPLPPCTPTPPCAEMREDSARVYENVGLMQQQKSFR

[15] = molecular target: Tyrosine-protein phosphatase non-receptor type 5 (Homo sapiens, UniProt P54829); experiment: PTPN5 enzyme inhibition – biochemical, fluorescence intensity, uHTS hits, confirmation (AID 602372); assay type: functional; conditions: read-out: IC50_Mean
Chain of Tyrosine-protein phosphatase non-receptor type 5 (P54829 whole entry): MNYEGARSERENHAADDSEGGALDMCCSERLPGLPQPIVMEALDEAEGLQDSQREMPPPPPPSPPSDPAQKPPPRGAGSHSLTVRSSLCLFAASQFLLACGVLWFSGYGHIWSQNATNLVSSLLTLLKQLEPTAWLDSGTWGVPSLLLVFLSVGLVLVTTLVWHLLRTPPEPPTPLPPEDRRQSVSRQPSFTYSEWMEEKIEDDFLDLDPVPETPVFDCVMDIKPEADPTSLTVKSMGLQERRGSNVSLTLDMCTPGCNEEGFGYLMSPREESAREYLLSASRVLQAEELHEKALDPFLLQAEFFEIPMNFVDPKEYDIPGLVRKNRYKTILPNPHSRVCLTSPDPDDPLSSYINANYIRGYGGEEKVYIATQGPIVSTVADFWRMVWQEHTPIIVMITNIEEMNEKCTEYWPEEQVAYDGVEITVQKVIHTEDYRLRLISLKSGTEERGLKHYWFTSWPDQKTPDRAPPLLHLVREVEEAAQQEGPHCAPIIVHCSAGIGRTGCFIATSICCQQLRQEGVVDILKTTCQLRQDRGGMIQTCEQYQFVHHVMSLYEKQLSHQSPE

[16] = molecular target: Dual specificity protein phosphatase 3 (Homo sapiens, UniProt P51452); experiment: VHR phosphatase inhibition, dose response, selectivity assay for STEP inhibitor project, biochemical (AID 602374); assay type: functional; conditions: read-out: IC50_Mean
Chain of Dual specificity protein phosphatase 3 (P51452 whole entry): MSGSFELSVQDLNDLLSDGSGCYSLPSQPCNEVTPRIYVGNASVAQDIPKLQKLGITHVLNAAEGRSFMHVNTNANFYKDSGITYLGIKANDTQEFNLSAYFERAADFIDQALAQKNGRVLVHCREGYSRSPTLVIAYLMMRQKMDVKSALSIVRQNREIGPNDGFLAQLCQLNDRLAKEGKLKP

[17] = molecular target: T6, Tyrosine-protein phosphatase non-receptor type 22 (Homo sapiens, UniProt Q9Y2R2); experiment: lymphoid phosphatase LYP inhibitors – biochemical, selectivity assay for STEP inhibitor project, dose response (AID 624241); assay type: functional
T6 sequence (Q9Y2R2 whole entry): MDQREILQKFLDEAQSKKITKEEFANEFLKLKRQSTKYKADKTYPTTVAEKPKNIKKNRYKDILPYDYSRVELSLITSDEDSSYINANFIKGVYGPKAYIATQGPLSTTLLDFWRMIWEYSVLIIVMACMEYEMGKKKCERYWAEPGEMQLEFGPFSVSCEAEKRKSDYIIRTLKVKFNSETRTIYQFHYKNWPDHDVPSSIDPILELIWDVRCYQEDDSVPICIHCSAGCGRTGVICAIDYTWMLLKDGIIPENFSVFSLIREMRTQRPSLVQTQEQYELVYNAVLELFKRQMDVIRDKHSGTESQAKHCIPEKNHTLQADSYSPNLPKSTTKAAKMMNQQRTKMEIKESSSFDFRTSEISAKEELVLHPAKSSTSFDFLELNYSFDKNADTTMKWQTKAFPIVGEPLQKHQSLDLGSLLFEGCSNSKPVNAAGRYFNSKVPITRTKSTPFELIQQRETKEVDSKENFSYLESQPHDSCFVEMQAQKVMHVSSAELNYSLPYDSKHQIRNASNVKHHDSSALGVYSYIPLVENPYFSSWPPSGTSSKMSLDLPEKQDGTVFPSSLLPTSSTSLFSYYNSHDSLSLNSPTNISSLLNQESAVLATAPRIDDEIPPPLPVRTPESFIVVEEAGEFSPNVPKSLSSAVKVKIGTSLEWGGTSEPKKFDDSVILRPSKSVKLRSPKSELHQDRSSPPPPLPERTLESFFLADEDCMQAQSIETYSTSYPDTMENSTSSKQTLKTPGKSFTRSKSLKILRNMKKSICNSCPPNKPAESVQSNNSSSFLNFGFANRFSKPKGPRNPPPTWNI

Q: Which results are given for `CCc1ccccc1Nc1nn2c(=O)c3ccc(C(=O)NCc4ccccn4)cc3nc2s1`?
A: AC50 [1]: 0.343 µM (active); IC50 [2]: 13.1 µM (inactive); IC50 [3]: > 66.6 µM (inactive); IC50 [4]: 10.4 µM (active)

Q: Which results are given for `COc1ccc(-c2oc3ncnc(NCCCN(C)C)c3c2-c2ccc(OC)cc2)cc1`?
A: AC50 [5]: 12.9 µM (active); AC50 [6]: 21.7 µM (active); AC50 [7]: 3.48 µM (active)

Q: For `CCOc1cc(/C=C2\CCC/C(=C\c3cc(Cl)c(O)c(OCC)c3)C2=O)cc(Cl)c1O`, which EC50 [8] is on record?
A: Its EC50 is 2.24 µM (active).

Q: And the EC50 [9]?
A: Its EC50 is 2.23 µM (active).

Q: And the IC50 [10]?
A: The IC50 was 7.08 µM (active).

Q: What about the IC50 [11] of the same compound?
A: The IC50 was > 100 µM (inactive).

Q: What about the IC50 [12] of the same compound?
A: The IC50 was > 100 µM (inactive).

Q: And the AC50 (INS1)?
A: Its AC50 is 8.02 µM (active).

Q: What about the IC50 [13] of the same compound?
A: Its IC50 is 6.46 µM (active).

Q: And the AC50 (Cytochrome P450 1A2)?
A: The AC50 was 10 µM (inconclusive).

Q: And the AC50 (Cytochrome P450 2C9)?
A: The AC50 was “inconclusive”.

Q: Which IC50 [14] does the source give for `CC1=C(C(=O)OC(C)C)C(c2ccc(Cl)cc2)n2c(s/c(=C\c3ccc(OCC(=O)O)cc3)c2=O)=N1` (configuration not stated) here?
A: Its IC50 is 3.24 µM (active).

Q: And the IC50 [15]?
A: The IC50 was 4.68 µM (active).

Q: And the IC50 [16]?
A: The IC50 was 3.02 µM (active).

Q: What about the IC50 [3] of the same compound?
A: Its IC50 is > 66.6 µM (inactive).

Q: And the IC50 [4]?
A: The IC50 was 7.22 µM (active).

Q: What about the IC50 [17] of the same compound?
A: The IC50 was 14.7 µM (active).
